Source: patent US9598393B2, “Structural variants of mycolactones for use in modulating inflammation, immunity and pain” (priority 2011, dated 2017)
pIC50: −log10 of the molar value. Where two headings read alike, the source gives them in different places.

What was measured:
[1] = tested on: epithelial HeLa cell line; experiment: Cytopathic activity, MTT assay (effect on global cell metabolic activity); assay type: cell-based, human; details: for Metabolic activity (MA: mean absorbance) (A) % relative to control / pIC50: HeLa cells, 48 h, MTT; for pIC50: % inhibition relative to control, read-out: Metabolic activity (A): IC50 value (concentration at which the compound induces 50% of mycolactone maximal activity); for Metabolic activity (A): corresponding % of mycolactone activity (in brackets): relative to mycolactone (100%); for cytopathic activity, reduction compared to mycolactones A/B: human
Experimental: (A) The cytopathic activity of mycolactone and variants was assessed in a [3-(4,5-Dimethylthiazol-2-yl)-2,5-Diphenyltetrazolium Bromide] (MTT) assay, using the epithelial HeLa cell line (ATCC®; CCL-2) as a model. Briefly, HeLa cells were plated in 96-well plates (10^4 cells/well) in Dulbecco's Modified Eagle culture medium supplemented with 10% fetal calf serum and 2 mM L-Glutamine. After 16 h, mycolactone or variants dilutions (final concentration 0.4-8 μM) were added to the wells, and incubated with the cells for 48 h, prior to the addition of MTT at 50 μg/ml. After 4 h, culture supernatants were removed and the formed formazan crystals dissolved in dimethyl sulfoxide (DMSO) for absorbance measurement.

[2] = tested on: IL-2 production by Jurkat T cells; experiment: Immunosuppressive activity: activation-induced IL-2 production, ELISA; assay type: cell-based, human; details: for Cytokine production (M.A.: mean absorbance) (C) % relative to control / pIC50: Jurkat T cells; for Cytokine production (M.A.: mean absorbance) (C) % relative to control: PMA + calcium ionophore, IL-2 ELISA; for pIC50: IL-2, % inhibition relative to control, read-out: Cytokine production (C): IC50 value (concentration at which the compound induces 50% of mycolactone maximal activity); for Cytokine production (C): corresponding % of mycolactone activity (in brackets): relative to mycolactone (100%)
Experimental: (C) The immunosuppressive activity of mycolactone and variants was measured on Jurkat T cells (ATCC®; TIB-152™ clone E6-1), as models of human T lymphocytes. Cells were inoculated in 96-well plates (5×10^5 cells/well in RPMI 1640 medium supplemented with 10% fetal calf serum and 2 mM L-Glutamine) then incubated with serial dilutions of the various compounds for 4 h, and stimulated for 20 h with 50 ng/ml phorbol-12-myristate-13-acetate (PMA) and 1 μg/ml calcium ionophore. The production of IL-2 was then assessed in culture supernatants by ELISA.

[3] = tested on: CD62-L receptor expression by human peripheral blood cells (PBLs); experiment: T cell homing: expression of CD62-L receptor, flow cytometry; assay type: cell-based; details: for CD62-L expression (MFI: mean fluorescence intensity) (D) % relative to control / pIC50: human PBLs, 72 h; for pIC50: % inhibition relative to control, read-out: CD62-L expression (D): IC50 value (concentration at which the compound induces 50% of mycolactone maximal activity); for CD62-L expression (D): corresponding % of mycolactone activity (in brackets): relative to mycolactone (100%)
Experimental: (D) The effect of mycolactone and variants on T cell homing was assessed through their inhibitory effect on the expression of CD62-L receptor by human peripheral blood cells (PBLs). Human PBLs were isolated from total blood by Ficoll density gradient centrifugation. They were incubated in 96-well plates (10^5 cells/well in RPMI 1640 medium supplemented with 10% fetal calf serum and 2 mM L-Glutamine) with mycolactone or variant for 72 h. Cells were then fixed for 20 min in 4% paraformaldehyde (PFA) and stained with an anti-CD62-L antibody coupled with phycoerythrin in a solution of PBS, BSA 0.5%, saponin 0.05%, then analysed by flow cytometry.

HeLa cell = experiment: Cytotoxicity by Trypan Blue dye exclusion (cell viability); assay type: cell-based, human; details: for cytotoxicity compared to mycolactones A/B: at 16 μM
Experimental: (B) HeLa cell death being negligible in the concentration and time frame conditions used in (A), the cytotoxicity of 16 μM mycolactone and variants was evaluated after 48 h of incubation by cell exclusion of the Trypan Blue dye. Here, one part of Trypan blue (0.4% in phosphate-buffered saline PBS) was mixed with one part cell suspension (recovered from cell culture wells by trypsin treatment). The mixture was incubated for 3 min at room temperature and unstained (viable) and stained (nonviable) cells counted separately with a hemacytometer.

| Molecule | Metabolic activity (MA: mean absorbance) (A) % relative to control ([1]; 0.4 μM) [%] | Metabolic activity (MA: mean absorbance) (A) % relative to control ([1]; 4 μM) [%] | Metabolic activity (MA: mean absorbance) (A) % relative to control ([1]; 8 μM) [%] | pIC50 [1] | Metabolic activity (A): corresponding % of mycolactone activity (in brackets) [1] [%] | Cytokine production (M.A.: mean absorbance) (C) % relative to control ([2]; 0.4 μM) [%] | Cytokine production (M.A.: mean absorbance) (C) % relative to control ([2]; 4 μM) [%] | Cytokine production (M.A.: mean absorbance) (C) % relative to control ([2]; 8 μM) [%] | pIC50 [2] | Cytokine production (C): corresponding % of mycolactone activity (in brackets) [2] [%] | CD62-L expression (MFI: mean fluorescence intensity) (D) % relative to control ([3]; 4 μM) [%] | CD62-L expression (MFI: mean fluorescence intensity) (D) % relative to control ([3]; 8 μM) [%] | CD62-L expression (D): corresponding % of mycolactone activity (in brackets) [3] [%] | pIC50 ([1]; Homo sapiens) | cytopathic activity, reduction compared to mycolactones A/B [1] [fold] | cytotoxicity compared to mycolactones A/B (HeLa cell) | pIC50 ([2]; Homo sapiens) | pIC50 ([3]; T-cell) | cytopathic activity compared to compound 20a [1] | cytotoxic activity compared to compound 20a (HeLa cell) | other results |
| --- | --- | --- | --- | --- | --- | --- | --- | --- | --- | --- | --- | --- | --- | --- | --- | --- | --- | --- | --- | --- | --- |
| 2,2-difluoro-4,6,10,12-tetramethyl-8-(4-{1-[(2S)-2-[(2R,4E,7S,8S)-7-methyl-12-oxo-8-{[(2E,4E,6E,8E,10E,12S,13S,15S)-12,13,15-trihydroxy-4,6,10-trimethylhexadeca-2,4,6,8,10-pentaenoyl]oxy}-1-oxacyclododec-4-en-2-yl]propyl]-1H-1,2,3-triazol-4-yl}butyl)-1λ^5,3-diaza-2λ^4-boratricyclo[7.3.0.0^3,7]dodeca-1(12),4,6,8,10-pentaen-1-ylium [Compound 28] | 0 | 20 | 35 | < 4.80 | < 20 | 20 | 50 | 70 | 5.40 | 2.5 | – | – | – | – | – | – | – | – | – | – | – |
| 2,2-difluoro-8-(4-{1-[(2S)-2-[(2R,4E,7S,8S)-8-hydroxy-7-methyl-12-oxo-1-oxacyclododec-4-en-2-yl]propyl]-1H-1,2,3-triazol-4-yl}butyl)-4,6,10,12-tetramethyl-1λ^5,3-diaza-2λ^4-boratricyclo[7.3.0.0^3,7]dodeca-1(12),4,6,8,10-pentaen-1-ylium [Compound 29] | 0 | 30 | 40 | 4.80 | 20 | 18 | 70 | 95 | 5.52 | 3.3 | 100 | 100 | 1.5 | – | – | – | – | – | – | – | pIC50 [3]: 5.70 |
| CC(=C/C=C/C(C)=C/[C@H](O)[C@@H](O)C[C@H](C)O)C=C(C)/C=C/C(=O)O[C@H]1CCCC(=O)O[C@@H]([C@@H](C)C/C(C)=C/[C@@H](C)[C@H](O)C[C@@H](C)O)C/C=C/C[C@@H]1C (racemic) [Compound 20a, (6S,7S,9E,12R)-12-[(2S,4E,6R,7R,9R)-7,9-dihydroxy-4,6-dimethyldec-4-en-2-yl]-7-methyl-2-oxo-1-oxacyclododec-9-en-6-yl(2E,4E,6E,8E,10E,12S,13S,15S)-12,13,15-trihydroxy-4,6,10-trimethylhexadeca-2,4,6,8,10-pentaenoate] | 0 | 10 | 30 | – | 25 | 0 | 40 | 70 | – | 1.6 | – | – | – | 4.85 | 4 | equivalent cytotoxicity | 5.22 | – | – | – | – |
| CC(=C/C=C/C(C)=C/[C@H](O)[C@@H](O)C[C@@H](C)O)C=C(C)/C=C/C(=O)O[C@H]1CCCC(=O)O[C@@H]([C@@H](C)C/C(C)=C/[C@@H](C)[C@H](O)C[C@@H](C)O)C/C=C/C[C@@H]1C (racemic) [Compound 20b, (6S,7S,9E,12R)-12-[(2S,4E,6R,7R,9R)-7,9-dihydroxy-4,6-dimethyldec-4-en-2-yl]-7-methyl-2-oxo-1-oxacyclododec-9-en-6-yl(2E,4E,6E,8E,10E,12S,13S,15R)-12,13,15-trihydroxy-4,6,10-trimethylhexadeca-2,4,6,8,10-pentaenoate] | 0 | 10 | 15 | – | 23 | 20 | 55 | 92 | – | 2.5 | 0 | 50 | 0.4 | 4.82 | 4 | equivalent cytotoxicity | 5.40 | 5.10 | – | – | – |
| CC(=C/C=C/C(C)=C/[C@@H](O)[C@H](O)C[C@@H](C)O)C=C(C)/C=C/C(=O)O[C@H]1CCCC(=O)O[C@@H]([C@@H](C)C/C(C)=C/[C@@H](C)[C@H](O)C[C@@H](C)O)C/C=C/C[C@@H]1C (racemic) [Compound 20c, (6S,7S,9E,12R)-12-[(2 S,4E,6R,7R,9R)-7,9-dihydroxy-4,6-dimethyldec-4-en-2-yl]-7-methyl-2-oxo-1-oxacyclododec-9-en-6-yl(2E,4E,6E,8E,10E,12R,13R,15R)-12,13,15-trihydroxy-4,6,10-trimethylhexadeca-2,4,6,8,10-pentaenoate] | 0 | 20 | 25 | – | < 20 | 18 | 35 | 65 | – | 1.5 | 0 | 10 | < 0.2 | < 4.80 | – | – | 5.19 | < 4.80 | significantly reduced | significantly reduced | – |
| CC(=C/C=C/C(C)=C/C[C@@H](O)CC(C)O)C=C(C)/C=C/C(=O)O[C@H]1CCCC(=O)O[C@@H]([C@@H](C)C/C(C)=C/[C@@H](C)[C@H](O)C[C@@H](C)O)C/C=C/C[C@@H]1C (stereo in doubt) [Compound 20d, (6S,7S,9E,12R)-12-[(2S,4E,6R,7R,9R)-7,9-dihydroxy-4,6-dimethyldec-4-en-2-yl]-7-methyl-2-oxo-1-oxacyclododec-9-en-6-yl(2E,4E,6E,8E,10E,13R,15R)-13,15-dihydroxy-4,6,10-trimethylhexadeca-2,4,6,8,10-pentaenoate] | 0 | 20 | 25 | – | < 20 | 12 | 30 | 55 | – | 1.4 | 0 | 0 | – | < 4.80 | – | – | 5.14 | – | significantly reduced | significantly reduced | – |
